Assay results from paper PMC3956377, “Rapid kill of malaria parasites by artemisinin and semi-synthetic endoperoxides involves ROS-dependent depolarization of the membrane potential” (Journal of Antimicrobial Chemotherapy, 2013).

Columns and labels:
Assay type in all cases: biochemical
[1] = target: T1, complex IV (cytochrome c oxidase) (Plasmodium falciparum, UniProt A0A5K1K9G8); experiment: spectrophotometric cytochrome c oxidation; details: read-out: Percentage inhibition / complex IV
T1 construct: gene PF3D7_MIT02100; native complex in cell-free extract of saponin-freed parasites; cytochrome c oxidase activity; with Cytochrome c oxidase subunit 3
T1 sequence (A0A5K1K9G8 1-508): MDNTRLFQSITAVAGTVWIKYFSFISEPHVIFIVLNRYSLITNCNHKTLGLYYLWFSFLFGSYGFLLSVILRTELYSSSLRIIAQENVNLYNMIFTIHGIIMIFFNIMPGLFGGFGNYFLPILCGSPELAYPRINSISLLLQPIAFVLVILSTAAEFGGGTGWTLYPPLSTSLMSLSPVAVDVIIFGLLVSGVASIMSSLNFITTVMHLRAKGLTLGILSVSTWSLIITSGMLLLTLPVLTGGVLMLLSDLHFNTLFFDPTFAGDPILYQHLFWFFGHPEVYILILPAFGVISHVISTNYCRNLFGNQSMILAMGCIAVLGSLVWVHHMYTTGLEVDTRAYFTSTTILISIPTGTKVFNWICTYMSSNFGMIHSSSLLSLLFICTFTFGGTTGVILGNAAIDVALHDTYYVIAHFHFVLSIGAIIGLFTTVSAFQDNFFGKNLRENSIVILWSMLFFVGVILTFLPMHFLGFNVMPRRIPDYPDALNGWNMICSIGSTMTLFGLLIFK
T1 sequence (Q7HP05 1-279 partner): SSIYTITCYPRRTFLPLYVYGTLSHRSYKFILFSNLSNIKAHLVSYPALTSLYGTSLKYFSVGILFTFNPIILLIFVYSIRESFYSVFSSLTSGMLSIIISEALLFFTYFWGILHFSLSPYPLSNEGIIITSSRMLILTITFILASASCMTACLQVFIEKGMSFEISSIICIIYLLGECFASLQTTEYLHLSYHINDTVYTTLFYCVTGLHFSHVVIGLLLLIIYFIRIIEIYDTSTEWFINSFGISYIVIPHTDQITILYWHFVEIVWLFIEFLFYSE

PfNDH2 = target: T2, PfNDH2 (Plasmodium falciparum, UniProt Q8I302); experiment: spectrophotometric NADH:quinone oxidoreductase assay ([…] and […] nm); details: read-out: Percentage inhibition / PfNDH2
T2 construct: gene PF3D7_0915000; recombinant, heterologously expressed; Escherichia coli crude membrane preparation
T2 sequence (Q8I302 34-533): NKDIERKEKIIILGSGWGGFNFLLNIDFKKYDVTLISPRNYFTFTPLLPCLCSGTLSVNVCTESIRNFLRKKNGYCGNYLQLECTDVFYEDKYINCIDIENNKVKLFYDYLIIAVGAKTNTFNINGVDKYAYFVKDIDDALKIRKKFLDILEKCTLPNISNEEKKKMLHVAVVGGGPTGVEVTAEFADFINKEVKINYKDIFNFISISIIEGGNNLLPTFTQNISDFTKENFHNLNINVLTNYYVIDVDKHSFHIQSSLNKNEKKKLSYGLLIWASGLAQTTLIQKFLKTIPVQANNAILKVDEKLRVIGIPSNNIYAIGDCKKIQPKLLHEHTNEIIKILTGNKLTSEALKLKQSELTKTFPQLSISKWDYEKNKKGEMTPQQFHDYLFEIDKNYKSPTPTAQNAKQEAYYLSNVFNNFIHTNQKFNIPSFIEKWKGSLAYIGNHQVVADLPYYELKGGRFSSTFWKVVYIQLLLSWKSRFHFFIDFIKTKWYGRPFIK

bc1 (complex III) = target: T3, bc1 (complex III) (Plasmodium falciparum, UniProt Q7HP03+Q8IL75); experiment: spectrophotometric cytochrome c reduction ([…]-542 nm); details: read-out: Percentage inhibition / bc1 (complex III)
T3 construct: gene PF3D7_MIT02300; native complex in cell-free extract of saponin-freed parasites; decylubiquinol:cytochrome c oxidoreductase activity; with Cytochrome c1, heme protein, mitochondrial
T3 sequence (Q7HP03 1-376): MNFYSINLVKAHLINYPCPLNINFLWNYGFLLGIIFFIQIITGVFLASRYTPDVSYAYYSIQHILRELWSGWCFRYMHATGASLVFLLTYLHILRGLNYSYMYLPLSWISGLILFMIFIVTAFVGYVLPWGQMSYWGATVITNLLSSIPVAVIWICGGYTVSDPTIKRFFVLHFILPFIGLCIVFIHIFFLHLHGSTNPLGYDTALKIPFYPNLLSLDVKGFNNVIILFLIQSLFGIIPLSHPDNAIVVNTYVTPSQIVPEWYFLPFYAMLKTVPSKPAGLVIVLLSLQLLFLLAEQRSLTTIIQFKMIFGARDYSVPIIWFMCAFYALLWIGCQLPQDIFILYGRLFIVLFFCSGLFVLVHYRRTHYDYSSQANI
T3 sequence (Q8IL75 31-355): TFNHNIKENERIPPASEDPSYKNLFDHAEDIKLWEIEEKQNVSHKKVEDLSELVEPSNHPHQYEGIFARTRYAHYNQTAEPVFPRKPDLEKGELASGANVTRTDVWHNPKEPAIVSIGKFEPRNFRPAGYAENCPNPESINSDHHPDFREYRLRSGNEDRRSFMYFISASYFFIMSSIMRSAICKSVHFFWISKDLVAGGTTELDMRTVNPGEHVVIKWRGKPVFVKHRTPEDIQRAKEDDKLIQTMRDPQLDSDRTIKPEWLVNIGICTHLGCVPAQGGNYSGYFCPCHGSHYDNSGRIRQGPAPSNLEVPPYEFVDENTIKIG
T3 sequence (Q8I6U9 1-394 partner): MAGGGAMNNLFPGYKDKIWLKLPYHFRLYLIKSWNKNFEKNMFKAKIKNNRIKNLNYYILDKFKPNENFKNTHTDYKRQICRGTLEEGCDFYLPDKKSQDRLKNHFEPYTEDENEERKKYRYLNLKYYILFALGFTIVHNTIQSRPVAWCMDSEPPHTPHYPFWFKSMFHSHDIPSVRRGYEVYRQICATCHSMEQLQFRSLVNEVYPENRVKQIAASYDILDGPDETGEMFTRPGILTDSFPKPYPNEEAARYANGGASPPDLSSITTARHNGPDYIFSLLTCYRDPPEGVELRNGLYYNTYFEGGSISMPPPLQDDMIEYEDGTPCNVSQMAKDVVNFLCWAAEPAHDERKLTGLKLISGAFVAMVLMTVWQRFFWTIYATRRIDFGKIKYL

Compound	inhibition at 1 µM [1] [%]	inhibition at 1 µM (PfNDH2) [%]	inhibition at 1 µM (bc1 (complex III)) [%]
C[C@@H]1CC[C@H]2[C@@H](C)C(O)O[C@@H]3O[C@@]4(C)CC[C@@H]1[C@]32OO4 (stereo partly drawn) [Dihydroartemisinin]	21.1 ± 7.9	5 ± 4.3	6.7 ± 4.1
CO[C@H]1O[C@@H]2O[C@@]3(C)CC[C@H]4[C@H](C)CC[C@@H]([C@H]1C)[C@@]24OO3 [Artemether]	23 ± 2	4.1 ± 3.3	1.8 ± 1.9
C[C@H]1[C@H](OC(=O)CCC(=O)O)O[C@@H]2O[C@@]3(C)CC[C@H]4[C@H](C)CC[C@@H]1[C@@]24OO3 [Artesunate]	21.1 ± 3.9	3.7 ± 2.9	2.3 ± 0.4
CN1CCN(C2CCN(C(=O)CC3CCC4(CC3)OOC3(OO4)C4CC5CC(C4)CC3C5)CC2)CC1 (stereo not drawn)	19.1 ± 2	12.3 ± 4.9	23.2 ± 4.2
C[C@@H]1CC[C@H]2[C@@H](C)C(=O)O[C@@H]3O[C@@]4(C)CC[C@@H]1[C@]32OO4 [Artemisinin]	18.4 ± 4.3	17.1 ± 4.2	3.2 ± 3.7
